Test [1] addresses T1, Caspase-3 (Homo sapiens, UniProt P42574).
T1 sequence (P42574 whole entry): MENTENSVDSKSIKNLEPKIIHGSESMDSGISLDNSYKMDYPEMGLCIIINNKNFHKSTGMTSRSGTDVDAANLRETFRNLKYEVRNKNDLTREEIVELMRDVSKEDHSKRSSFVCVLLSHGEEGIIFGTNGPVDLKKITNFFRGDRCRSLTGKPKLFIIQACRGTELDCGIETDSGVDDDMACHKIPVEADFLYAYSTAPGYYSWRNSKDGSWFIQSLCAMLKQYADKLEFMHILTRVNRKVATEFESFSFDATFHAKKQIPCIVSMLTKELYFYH
In kind it is functional.

Test [2] has as its target T2, Sentrin-specific protease 7 (Homo sapiens, UniProt Q9BQF6).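 Further: Luminescence-based dose-response confirmation of ultra-high-throughput screening hits, measuring inhibition of SENP7.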
T2 sequence (Q9BQF6 whole entry): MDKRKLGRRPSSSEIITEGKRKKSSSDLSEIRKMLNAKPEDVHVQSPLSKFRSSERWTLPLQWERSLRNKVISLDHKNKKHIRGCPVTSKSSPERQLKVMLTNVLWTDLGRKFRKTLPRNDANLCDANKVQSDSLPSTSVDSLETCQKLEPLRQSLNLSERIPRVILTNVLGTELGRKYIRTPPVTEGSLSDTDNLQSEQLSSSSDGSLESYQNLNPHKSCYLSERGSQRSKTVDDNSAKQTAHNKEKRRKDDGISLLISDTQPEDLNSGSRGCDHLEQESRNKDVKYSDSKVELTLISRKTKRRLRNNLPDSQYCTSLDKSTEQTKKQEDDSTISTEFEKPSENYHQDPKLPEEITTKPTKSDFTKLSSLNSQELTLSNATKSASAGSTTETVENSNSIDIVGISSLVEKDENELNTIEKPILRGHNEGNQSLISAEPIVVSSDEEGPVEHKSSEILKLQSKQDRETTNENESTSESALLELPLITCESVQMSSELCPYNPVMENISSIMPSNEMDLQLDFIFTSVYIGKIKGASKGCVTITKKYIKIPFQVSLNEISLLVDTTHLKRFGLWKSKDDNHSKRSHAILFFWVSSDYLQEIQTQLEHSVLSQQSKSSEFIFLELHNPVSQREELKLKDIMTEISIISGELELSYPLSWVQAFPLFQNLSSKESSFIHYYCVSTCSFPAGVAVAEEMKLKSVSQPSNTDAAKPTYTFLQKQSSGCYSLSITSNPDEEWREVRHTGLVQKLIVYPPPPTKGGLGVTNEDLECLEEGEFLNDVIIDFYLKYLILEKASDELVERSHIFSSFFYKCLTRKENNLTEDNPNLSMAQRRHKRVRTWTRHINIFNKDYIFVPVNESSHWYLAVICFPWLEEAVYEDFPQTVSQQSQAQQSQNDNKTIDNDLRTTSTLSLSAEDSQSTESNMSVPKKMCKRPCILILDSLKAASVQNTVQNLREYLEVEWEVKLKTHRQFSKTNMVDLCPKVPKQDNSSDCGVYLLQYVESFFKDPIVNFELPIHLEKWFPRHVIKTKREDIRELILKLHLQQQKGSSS
The test is classed as functional.

The target in test [3] is T3, Sentrin-specific protease 6 (Homo sapiens, UniProt Q9GZR1).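 Further: Luminescence-based dose-response confirmatory assay of SENP6 inhibition, following up an ultra-high-throughput screen.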
T3 sequence (Q9GZR1 whole entry): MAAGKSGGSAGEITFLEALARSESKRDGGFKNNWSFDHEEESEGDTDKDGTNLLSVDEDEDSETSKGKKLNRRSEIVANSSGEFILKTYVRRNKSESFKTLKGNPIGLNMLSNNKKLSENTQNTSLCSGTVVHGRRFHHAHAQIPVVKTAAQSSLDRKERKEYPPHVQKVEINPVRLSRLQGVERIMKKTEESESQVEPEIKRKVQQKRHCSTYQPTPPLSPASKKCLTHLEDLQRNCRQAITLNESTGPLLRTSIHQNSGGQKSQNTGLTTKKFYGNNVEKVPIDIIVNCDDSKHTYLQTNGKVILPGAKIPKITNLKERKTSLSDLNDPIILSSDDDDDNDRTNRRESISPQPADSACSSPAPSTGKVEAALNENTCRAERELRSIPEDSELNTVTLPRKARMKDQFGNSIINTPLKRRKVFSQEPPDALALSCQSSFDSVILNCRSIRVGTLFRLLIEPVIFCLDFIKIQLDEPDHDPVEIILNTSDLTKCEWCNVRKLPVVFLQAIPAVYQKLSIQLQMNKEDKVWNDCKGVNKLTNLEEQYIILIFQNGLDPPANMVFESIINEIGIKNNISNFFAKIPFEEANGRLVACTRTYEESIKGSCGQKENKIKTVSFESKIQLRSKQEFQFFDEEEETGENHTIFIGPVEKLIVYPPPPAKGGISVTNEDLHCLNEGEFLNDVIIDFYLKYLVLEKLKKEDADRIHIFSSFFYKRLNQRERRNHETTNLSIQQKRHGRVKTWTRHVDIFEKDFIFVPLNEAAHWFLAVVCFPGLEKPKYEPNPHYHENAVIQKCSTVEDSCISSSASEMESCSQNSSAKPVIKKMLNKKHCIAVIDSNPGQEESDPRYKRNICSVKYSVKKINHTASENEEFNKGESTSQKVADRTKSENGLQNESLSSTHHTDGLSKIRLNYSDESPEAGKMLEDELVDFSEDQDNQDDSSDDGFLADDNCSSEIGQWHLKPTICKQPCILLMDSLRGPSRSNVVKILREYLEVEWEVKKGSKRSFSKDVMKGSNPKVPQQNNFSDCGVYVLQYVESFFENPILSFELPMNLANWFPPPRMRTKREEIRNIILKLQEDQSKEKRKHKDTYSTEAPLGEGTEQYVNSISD
The test is classed as functional.

The target in test [4] is T4, Sentrin-specific protease 8 (Homo sapiens, UniProt Q96LD8).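 Further: luminescence read-out of SENP8 inhibition, dose-response confirmation following an ultra-high-throughput screen.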
T4 sequence (Q96LD8 whole entry): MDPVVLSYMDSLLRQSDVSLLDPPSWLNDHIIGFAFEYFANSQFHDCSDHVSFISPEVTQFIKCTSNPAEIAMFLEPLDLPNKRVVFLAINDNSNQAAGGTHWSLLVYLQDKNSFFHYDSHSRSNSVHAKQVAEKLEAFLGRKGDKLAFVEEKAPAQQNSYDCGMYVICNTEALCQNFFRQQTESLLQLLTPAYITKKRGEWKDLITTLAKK
In kind it is functional.

Test [5] has as its target T5, Heat shock factor protein 1 (Mus musculus, UniProt P38532).
T5 sequence (P38532 whole entry): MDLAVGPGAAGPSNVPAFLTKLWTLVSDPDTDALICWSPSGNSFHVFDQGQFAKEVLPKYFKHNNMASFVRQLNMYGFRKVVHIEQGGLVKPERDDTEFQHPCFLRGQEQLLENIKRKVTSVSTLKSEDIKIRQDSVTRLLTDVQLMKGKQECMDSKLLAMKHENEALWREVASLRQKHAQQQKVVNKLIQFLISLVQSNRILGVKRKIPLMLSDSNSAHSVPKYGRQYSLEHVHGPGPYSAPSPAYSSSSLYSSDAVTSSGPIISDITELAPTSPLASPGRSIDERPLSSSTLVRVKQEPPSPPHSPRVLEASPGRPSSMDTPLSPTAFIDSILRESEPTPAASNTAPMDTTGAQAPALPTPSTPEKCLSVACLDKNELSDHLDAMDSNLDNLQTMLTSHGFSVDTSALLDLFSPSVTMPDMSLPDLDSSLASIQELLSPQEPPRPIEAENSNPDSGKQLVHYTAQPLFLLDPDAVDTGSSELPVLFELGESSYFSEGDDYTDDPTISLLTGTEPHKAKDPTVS
The test is described as follows: enhancement of HSF1-driven luciferase signal – cell-based, NIH3T3, luminescence, dose retest, confirmation (AID 435004).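 Further: stress induced by proteasome inhibitor MG132 added 30 min after compound; luciferase reporter driven by HSF1 response element in NIH3T3 cells; actives raise luminescence as potentiators of the MG132 stress response.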 The test is classed as functional.

Test [6] in a line: Luminescence Cell-Based Dose Retest to Confirm Inhibitors of Cancer Stem Cells. [Related pubchem assays (depositor defined):AID2717, AID2721]. The settings on record: Homo sapiens. The test is classed as functional.
In test [7] the target is T6, Fatty acid synthase (Homo sapiens, UniProt P49327). The test is described as follows: inhibition of human FAS-TE enzyme activity – biochemical, endpoint fluorescence intensity, uHTS hits, dose response (AID 624327).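 Further: fluorescence from hydrolysis of an O-methyl fluorescein acyl ester substrate by the enzyme.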 The test is classed as functional.
The target of test [8] is T6, Fatty acid synthase. Description: inhibition of human FAS-TE enzyme activity – biochemical, kinetic fluorescence intensity, dose response (AID 624326).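 Further: rate of fluorescence rise from hydrolysis of a fluorogenic O-methyl fluorescein ester substrate.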 In kind it is functional.
Test [9] has as its target T7, Corticotropin-releasing factor receptor 2/Corticotropin-releasing factor-binding protein (Homo sapiens, UniProt P24387+Q13324).
T7 sequence (Q13324 whole entry): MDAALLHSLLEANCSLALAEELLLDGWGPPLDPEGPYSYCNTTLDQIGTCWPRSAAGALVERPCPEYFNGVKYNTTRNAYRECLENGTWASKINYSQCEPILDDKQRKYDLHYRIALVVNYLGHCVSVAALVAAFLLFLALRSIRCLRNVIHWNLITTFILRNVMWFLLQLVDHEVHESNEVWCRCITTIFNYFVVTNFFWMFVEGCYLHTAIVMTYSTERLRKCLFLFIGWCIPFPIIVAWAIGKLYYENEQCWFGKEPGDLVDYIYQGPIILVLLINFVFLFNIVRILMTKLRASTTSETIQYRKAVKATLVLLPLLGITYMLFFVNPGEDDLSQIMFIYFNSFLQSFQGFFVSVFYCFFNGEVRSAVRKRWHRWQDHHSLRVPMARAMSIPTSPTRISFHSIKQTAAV
T7 sequence (P24387 whole entry): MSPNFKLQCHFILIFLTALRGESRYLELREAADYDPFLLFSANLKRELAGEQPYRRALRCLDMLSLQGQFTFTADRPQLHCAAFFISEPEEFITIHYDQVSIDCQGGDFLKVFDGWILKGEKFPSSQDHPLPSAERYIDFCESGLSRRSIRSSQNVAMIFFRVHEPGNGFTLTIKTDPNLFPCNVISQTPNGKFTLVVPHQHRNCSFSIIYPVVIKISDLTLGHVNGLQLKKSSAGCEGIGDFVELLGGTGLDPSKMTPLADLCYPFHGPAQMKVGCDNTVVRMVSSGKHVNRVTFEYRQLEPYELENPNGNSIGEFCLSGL
Description: Dose Response confirmation of uHTS hits for small molecule antagonists of the CRF-binding protein and CRF-R2 receptor complex. In kind it is functional. The settings on record: read-out: IC50_Mean.

The target of test [10] is T7, Corticotropin-releasing factor receptor 2/Corticotropin-releasing factor-binding protein. The test is described as follows: activators of CRF receptor 2 with binding protein – uHTS hits, confirmation (AID 602473). The test is classed as functional. The settings on record: read-out: EC50_Mean.
The target of test [11] is T8, Rac GTPase-activating protein 1 (Homo sapiens, UniProt Q9H0H5).
T8 sequence (Q9H0H5 whole entry): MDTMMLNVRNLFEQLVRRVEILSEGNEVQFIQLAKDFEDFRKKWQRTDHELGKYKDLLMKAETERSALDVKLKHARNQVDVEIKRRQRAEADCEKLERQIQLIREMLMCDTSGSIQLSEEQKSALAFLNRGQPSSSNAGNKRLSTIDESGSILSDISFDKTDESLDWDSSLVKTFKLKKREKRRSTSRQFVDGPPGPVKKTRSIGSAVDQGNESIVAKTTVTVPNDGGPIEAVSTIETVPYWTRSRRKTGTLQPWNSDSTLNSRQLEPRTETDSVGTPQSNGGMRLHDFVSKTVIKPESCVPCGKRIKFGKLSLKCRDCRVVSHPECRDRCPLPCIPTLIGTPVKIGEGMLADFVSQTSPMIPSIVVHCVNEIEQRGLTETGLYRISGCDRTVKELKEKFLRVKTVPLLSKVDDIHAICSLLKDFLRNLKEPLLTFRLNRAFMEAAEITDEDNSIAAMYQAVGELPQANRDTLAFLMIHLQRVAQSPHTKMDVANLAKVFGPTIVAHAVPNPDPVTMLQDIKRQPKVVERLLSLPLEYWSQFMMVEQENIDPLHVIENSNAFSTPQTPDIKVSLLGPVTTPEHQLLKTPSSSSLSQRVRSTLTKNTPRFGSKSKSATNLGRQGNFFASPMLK
The test is described as follows: blockers of MgcRacGAP-driven Rac1 GTP hydrolysis – biochemical, ADP Hunter fluorescence, primary and confirmatory, confirmation (AID 624330). In kind it is functional.

Test [12] deals with T9, DNA repair protein RAD52 homolog (Homo sapiens, UniProt P43351).
T9 sequence (P43351 whole entry): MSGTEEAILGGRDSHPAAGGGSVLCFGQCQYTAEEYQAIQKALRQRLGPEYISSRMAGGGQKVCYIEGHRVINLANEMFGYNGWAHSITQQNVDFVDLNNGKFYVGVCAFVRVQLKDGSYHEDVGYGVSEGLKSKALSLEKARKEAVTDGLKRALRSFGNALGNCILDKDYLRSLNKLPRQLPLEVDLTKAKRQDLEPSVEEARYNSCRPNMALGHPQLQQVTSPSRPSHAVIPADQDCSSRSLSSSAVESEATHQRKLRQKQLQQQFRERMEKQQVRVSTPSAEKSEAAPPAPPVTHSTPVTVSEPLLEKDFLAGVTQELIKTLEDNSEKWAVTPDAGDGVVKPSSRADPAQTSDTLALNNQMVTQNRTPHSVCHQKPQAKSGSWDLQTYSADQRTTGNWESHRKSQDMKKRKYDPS
In kind it is functional, biochemical.

Test [13] relates to Escherichia coli. The test is described as follows: microbe, parasite or virus in culture.
Test [14] deals with Escherichia coli. Description: microbe, parasite or virus in culture. The source holds these as a separate data set.

Activity calls are given as the source filed them.

T6 sequence (P49327 whole entry): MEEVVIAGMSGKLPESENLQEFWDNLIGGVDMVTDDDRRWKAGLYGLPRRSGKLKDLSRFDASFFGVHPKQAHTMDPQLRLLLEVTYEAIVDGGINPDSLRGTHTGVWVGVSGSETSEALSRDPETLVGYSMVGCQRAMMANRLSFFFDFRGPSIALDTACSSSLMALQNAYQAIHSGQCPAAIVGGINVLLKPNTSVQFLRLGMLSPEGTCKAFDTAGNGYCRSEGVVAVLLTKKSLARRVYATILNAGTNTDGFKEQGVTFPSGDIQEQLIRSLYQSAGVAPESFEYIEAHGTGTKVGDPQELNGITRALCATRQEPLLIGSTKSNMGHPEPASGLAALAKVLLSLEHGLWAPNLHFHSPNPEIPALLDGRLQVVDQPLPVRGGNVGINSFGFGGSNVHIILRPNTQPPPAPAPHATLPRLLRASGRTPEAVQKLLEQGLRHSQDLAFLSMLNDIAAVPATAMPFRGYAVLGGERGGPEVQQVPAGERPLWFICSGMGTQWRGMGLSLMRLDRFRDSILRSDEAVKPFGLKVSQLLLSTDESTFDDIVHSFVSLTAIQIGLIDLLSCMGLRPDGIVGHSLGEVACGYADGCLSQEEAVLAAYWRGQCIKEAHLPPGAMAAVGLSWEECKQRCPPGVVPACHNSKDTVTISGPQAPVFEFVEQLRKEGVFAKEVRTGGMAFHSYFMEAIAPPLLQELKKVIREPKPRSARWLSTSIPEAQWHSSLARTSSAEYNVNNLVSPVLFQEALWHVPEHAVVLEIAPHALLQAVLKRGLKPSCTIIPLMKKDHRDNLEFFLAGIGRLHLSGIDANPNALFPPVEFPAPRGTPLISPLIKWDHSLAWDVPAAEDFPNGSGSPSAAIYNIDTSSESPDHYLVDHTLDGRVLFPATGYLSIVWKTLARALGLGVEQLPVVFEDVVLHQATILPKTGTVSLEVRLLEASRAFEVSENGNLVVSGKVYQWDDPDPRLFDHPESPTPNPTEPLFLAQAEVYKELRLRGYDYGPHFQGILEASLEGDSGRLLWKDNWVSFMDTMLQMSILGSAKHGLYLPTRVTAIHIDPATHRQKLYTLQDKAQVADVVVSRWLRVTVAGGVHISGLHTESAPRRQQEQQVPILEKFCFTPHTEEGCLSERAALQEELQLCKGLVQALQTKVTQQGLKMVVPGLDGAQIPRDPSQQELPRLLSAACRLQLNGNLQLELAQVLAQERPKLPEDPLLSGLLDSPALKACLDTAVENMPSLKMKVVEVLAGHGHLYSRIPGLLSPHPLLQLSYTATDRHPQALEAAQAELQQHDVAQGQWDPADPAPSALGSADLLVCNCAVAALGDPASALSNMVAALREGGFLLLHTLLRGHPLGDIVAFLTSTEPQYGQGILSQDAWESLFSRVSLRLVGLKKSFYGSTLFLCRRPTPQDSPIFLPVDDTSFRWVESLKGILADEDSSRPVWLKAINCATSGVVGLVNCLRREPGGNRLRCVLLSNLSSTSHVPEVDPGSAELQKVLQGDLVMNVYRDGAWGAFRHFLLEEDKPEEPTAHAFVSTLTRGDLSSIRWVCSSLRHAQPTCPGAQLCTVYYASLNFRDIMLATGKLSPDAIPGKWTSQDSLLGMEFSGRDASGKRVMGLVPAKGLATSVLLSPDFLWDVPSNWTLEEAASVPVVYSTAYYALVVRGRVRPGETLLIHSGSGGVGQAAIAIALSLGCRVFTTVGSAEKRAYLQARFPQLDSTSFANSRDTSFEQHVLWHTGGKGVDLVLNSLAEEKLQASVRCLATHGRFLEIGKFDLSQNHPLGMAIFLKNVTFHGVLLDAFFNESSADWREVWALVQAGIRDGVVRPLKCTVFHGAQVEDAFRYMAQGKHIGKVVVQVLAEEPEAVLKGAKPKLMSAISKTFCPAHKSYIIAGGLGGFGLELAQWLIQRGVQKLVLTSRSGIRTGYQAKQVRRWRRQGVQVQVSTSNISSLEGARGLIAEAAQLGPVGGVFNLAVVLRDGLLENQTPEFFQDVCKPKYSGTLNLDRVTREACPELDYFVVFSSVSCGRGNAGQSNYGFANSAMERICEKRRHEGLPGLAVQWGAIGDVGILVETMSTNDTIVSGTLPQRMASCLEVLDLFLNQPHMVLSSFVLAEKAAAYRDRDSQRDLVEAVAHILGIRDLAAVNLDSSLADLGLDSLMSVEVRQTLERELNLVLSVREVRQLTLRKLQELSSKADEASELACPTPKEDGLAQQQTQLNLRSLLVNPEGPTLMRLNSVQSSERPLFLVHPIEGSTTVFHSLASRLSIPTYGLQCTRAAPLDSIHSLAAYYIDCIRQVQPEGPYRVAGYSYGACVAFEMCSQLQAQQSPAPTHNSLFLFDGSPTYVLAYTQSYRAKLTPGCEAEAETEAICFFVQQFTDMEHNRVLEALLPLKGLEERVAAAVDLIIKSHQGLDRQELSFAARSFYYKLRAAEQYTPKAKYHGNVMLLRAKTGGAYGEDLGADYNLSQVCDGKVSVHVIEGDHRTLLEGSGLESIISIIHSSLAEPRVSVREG

For `O=C(O)c1ccc(-c2nc(O)c3c(-c4ccccc4)csc3n2)cc1`, the IC50 is > 100 µM (inactive) in test [1], 40.4 µM (active) in test [2], 56.1 µM (active) in [3] and 61.6 µM (active) in test [4].
For `COc1nc(C)ccc1-c1noc(-c2cccs2)n1`, the IC50 is 13 µM (active) in test [1], 5.07 µM (active) in [2], 32.7 µM (active) in test [3] and 9.82 µM (active) in test [4]. The EC50 in test [5] is > 260 µM (inactive).
The term AC50 denotes the concentration at which the activity in the assay is half-maximal. As to `COc1ccc2nc(NC(=O)c3ccc([N+](=O)[O-])o3)sc2c1`, the concentration at half-maximal activity (AC50) in test [6] was 1.96 µM (active). For the same compound, the IC50 in test [1] is 28.2 µM (active); in test [2] it was 4.54 µM (active); in [3], 13.8 µM (active); in test [4], 22.9 µM (active); in test [7], 14.5 µM (active); in test [8], 8.39 µM (active).
Regarding `NCC[C@H](O)C(=O)N[C@@H]1C[C@H](N)[C@@H](O[C@H]2O[C@H](CN)[C@@H](O)[C@H](O)[C@H]2O)[C@H](O)[C@H]1O[C@H]1O[C@H](CO)[C@@H](O)[C@H](N)[C@H]1O`, the IC50 is > 47.1 µM (inactive) in test [9] and 113 µM (active) in [11]. Besides, the EC50 in test [10] is > 53 µM (inactive). In addition, the AC50 in test [12] is 5.91 µM (active); in test [13], 14.9 µM (active); in [14] it was 4.69 µM (active).

The values are drawn from ChEMBL document CHEMBL1201862, “PubChem BioAssay data set” (2004).
